ChEMBL document CHEMBL1158598, “5-ureidobenzofuranone indoles as potent and efficacious inhibitors of PI3 kinase-alpha and mTOR for the treatment of breast cancer” (Bioorg Med Chem Lett, 2010)
≈ marks a conversion by molar mass, not a printed value. Calls of active or inactive are those of the source. The rule behind the calls is not given here.

Columns and labels:
[1] = system: MDA-MB-361; assay: Cytotoxicity against human MDA-MB-361 cells; type: functional, cell-based
[2] = biological target: Phosphatidylinositol 4,5-bisphosphate 3-kinase catalytic subunit alpha isoform (Homo sapiens, UniProt P42336); assay: Inhibition of PI3Kalpha
Sequence of Phosphatidylinositol 4,5-bisphosphate 3-kinase catalytic subunit alpha isoform (P42336 whole entry, canonical isoform): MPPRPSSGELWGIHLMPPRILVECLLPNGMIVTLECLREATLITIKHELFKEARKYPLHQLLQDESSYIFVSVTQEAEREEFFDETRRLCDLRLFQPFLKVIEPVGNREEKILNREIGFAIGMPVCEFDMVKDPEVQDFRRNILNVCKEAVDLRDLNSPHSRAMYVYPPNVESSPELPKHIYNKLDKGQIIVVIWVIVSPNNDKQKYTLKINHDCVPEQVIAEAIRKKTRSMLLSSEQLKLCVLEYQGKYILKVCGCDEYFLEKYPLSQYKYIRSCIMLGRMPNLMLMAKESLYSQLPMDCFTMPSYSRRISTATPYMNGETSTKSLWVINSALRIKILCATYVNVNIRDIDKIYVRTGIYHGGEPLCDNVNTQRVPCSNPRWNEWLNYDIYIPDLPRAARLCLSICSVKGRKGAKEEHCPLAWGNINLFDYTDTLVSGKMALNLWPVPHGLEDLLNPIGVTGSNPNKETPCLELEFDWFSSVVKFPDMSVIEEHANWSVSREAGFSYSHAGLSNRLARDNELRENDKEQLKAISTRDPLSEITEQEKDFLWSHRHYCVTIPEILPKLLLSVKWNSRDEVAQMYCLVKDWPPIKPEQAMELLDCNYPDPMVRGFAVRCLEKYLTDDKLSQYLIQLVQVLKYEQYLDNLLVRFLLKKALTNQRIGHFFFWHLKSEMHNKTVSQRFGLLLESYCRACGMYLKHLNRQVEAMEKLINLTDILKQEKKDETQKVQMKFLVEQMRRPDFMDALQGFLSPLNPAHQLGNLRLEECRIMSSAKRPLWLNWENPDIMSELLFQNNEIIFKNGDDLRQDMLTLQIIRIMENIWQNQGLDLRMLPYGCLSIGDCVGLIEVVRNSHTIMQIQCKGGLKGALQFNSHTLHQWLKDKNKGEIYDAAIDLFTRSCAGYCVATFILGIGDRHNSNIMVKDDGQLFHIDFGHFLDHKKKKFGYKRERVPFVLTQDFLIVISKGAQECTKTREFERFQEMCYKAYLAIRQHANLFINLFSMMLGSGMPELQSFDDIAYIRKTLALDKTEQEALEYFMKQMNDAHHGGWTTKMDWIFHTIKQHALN

[3] = biological target: Serine/threonine-protein kinase mTOR (Homo sapiens, UniProt P42345); assay: Inhibition of mTOR
[4] = Cytotoxicity against human PC3MM2 cells; type: functional, cell-based
[5] = Half life in rat microsome; type: ADME; details: microsomes
[6] = Solubility at pH 7.4; type: physicochemical; details: buffer
[7] = system: Mus musculus; assay: Inhibition of AKT-P70S6K phosphorylation in nude mouse at 25 mg/kg, iv after 8 hrs; type: functional, organism-based; set-up: dose 25 mg/kg
[8] = biological target: Phosphatidylinositol 4,5-bisphosphate 3-kinase catalytic subunit beta isoform (Homo sapiens, UniProt P42338); assay: Inhibition of PI3Kbeta
Sequence of Phosphatidylinositol 4,5-bisphosphate 3-kinase catalytic subunit beta isoform (P42338 whole entry, canonical isoform): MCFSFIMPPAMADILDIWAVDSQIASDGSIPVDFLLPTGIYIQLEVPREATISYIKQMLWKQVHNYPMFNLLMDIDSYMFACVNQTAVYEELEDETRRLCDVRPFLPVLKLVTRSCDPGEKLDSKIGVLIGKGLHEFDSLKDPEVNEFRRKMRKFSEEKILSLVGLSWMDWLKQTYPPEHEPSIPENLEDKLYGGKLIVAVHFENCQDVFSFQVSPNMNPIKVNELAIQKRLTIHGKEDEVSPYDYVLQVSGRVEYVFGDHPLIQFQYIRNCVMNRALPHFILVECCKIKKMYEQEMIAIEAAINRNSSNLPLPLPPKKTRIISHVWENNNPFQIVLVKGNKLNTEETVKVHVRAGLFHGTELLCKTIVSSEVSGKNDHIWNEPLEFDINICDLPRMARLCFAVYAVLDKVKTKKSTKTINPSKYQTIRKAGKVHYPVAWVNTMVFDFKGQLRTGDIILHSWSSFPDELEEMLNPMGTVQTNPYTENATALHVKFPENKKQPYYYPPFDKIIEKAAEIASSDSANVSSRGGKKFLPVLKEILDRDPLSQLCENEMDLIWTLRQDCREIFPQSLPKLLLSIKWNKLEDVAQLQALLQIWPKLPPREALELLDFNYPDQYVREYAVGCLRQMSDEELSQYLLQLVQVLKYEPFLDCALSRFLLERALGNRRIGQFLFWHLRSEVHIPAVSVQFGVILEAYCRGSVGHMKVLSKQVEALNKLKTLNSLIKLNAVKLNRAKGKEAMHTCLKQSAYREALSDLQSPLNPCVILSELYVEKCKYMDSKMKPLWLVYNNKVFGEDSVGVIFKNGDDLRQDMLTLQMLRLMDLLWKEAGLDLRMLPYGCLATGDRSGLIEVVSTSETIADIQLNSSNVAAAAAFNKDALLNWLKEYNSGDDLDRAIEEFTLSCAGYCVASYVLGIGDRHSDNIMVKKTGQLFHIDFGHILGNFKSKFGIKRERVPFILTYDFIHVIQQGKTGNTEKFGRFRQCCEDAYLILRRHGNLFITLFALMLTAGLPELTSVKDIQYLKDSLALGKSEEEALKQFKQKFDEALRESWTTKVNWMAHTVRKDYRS

[9] = system: Phosphatidylinositol 4,5-bisphosphate 3-kinase catalytic subunit alpha isoform (Homo sapiens), P42336 [E545K]; assay: Inhibition of PI3Kalpha E545K mutant
Sequence of Phosphatidylinositol 4,5-bisphosphate 3-kinase catalytic subunit alpha isoform (Homo sapiens), P42336 [E545K] (P42336 whole entry E545K, canonical isoform): as the sequence (P42336 whole entry, canonical isoform) above, with E545K counted along it

[10] = system: MDA-MB-361; assay: Antitumor activity against human MDA-MB-361 cells xenografted in mouse assessed as reduction in tumor size at 25 mg/kg, iv after 1 to 9 days; type: functional, organism-based; set-up: dose 25 mg/kg
[11] = biological target: T1, Phosphatidylinositol 4,5-bisphosphate 3-kinase catalytic subunit delta isoform (Homo sapiens, UniProt O00329); assay: Inhibition of PI3delta
T1 sequence (O00329 whole entry): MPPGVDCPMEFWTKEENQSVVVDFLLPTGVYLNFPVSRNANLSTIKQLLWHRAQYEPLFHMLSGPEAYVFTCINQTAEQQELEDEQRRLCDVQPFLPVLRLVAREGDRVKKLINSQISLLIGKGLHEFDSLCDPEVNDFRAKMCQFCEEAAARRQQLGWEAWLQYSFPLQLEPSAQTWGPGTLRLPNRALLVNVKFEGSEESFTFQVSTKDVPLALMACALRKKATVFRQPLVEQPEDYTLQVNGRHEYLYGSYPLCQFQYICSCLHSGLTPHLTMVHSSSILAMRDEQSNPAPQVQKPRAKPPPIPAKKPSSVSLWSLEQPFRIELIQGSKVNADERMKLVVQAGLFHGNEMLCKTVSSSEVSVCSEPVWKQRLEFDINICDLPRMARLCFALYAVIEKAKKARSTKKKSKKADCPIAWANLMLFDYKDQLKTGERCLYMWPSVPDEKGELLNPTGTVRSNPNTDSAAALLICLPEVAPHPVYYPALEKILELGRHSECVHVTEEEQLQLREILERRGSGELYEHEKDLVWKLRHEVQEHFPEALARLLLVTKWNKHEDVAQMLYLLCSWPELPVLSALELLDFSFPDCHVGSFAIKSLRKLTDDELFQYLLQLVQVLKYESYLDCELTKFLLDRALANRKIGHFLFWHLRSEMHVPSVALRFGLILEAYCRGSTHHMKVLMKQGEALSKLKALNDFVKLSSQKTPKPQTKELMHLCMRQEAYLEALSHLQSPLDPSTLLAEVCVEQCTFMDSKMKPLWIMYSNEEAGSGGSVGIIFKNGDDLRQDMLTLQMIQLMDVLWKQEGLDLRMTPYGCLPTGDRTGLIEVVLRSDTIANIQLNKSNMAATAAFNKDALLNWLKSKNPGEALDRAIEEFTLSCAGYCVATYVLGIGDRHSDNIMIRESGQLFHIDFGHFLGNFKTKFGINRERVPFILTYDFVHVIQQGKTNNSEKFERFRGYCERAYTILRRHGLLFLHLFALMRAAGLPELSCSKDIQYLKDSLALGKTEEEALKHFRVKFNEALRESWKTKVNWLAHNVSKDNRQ

[12] = Permeability from basolateral to apical side of the human Caco-2 membrane; type: ADME, cell-based; details: read-out: permeability
[13] = Permeability from apical to basolateral side of the human Caco-2 membrane; type: ADME, cell-based; details: read-out: permeability
[14] = biological target: Phosphatidylinositol 4,5-bisphosphate 3-kinase catalytic subunit gamma isoform (Homo sapiens, UniProt P48736); assay: Inhibition of PI3gamma
Sequence of Phosphatidylinositol 4,5-bisphosphate 3-kinase catalytic subunit gamma isoform (P48736 whole entry, canonical isoform): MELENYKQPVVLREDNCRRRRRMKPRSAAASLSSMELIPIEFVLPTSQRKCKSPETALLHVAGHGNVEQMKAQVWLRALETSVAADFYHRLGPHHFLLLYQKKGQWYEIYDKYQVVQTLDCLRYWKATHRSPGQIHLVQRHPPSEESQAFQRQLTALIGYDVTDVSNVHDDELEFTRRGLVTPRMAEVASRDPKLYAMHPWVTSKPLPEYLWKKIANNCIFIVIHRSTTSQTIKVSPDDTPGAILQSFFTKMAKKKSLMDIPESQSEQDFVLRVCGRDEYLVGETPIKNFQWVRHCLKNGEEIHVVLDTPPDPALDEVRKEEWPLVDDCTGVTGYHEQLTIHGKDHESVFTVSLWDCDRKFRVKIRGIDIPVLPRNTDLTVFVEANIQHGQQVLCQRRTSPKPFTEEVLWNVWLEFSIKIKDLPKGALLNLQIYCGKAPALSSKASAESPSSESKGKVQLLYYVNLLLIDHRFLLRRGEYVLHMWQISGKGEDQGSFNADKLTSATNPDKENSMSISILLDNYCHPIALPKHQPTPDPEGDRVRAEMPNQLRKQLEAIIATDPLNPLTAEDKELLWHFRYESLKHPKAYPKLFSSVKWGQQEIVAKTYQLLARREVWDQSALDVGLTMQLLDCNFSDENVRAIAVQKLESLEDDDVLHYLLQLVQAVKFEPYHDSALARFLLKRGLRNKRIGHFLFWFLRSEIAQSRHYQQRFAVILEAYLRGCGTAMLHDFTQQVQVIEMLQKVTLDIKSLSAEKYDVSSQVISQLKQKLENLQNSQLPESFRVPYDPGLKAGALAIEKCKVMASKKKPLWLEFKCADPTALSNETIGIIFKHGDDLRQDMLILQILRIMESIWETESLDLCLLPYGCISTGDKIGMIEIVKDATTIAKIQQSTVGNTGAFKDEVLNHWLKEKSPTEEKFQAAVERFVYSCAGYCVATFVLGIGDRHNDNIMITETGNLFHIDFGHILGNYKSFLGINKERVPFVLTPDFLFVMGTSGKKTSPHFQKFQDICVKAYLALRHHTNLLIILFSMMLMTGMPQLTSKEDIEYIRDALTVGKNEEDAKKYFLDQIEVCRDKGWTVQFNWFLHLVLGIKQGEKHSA

[15] = Half life in human microsome; type: ADME; details: microsomes
[16] = Half life in mouse microsome; type: ADME; details: microsomes
[17] = system: Mus musculus; assay: Inhibition of AKT-PS6 phosphorylation in nude mouse at 25 mg/kg, iv after 8 hrs; type: functional, organism-based; set-up: dose 25 mg/kg
[18] = system: Mus musculus; assay: Inhibition of AKT-T308 phosphorylation in nude mouse at 25 mg/kg, iv after 8 hrs; type: functional, organism-based; set-up: dose 25 mg/kg
[19] = system: Mus musculus; assay: Inhibition of AKT-S473 phosphorylation in nude mouse at 25 mg/kg, iv after 8 hrs; type: functional, organism-based; set-up: dose 25 mg/kg
[20] = system: Phosphatidylinositol 4,5-bisphosphate 3-kinase catalytic subunit alpha isoform (Homo sapiens), P42336 [H1047R]; assay: Inhibition of PI3Kalpha H1047R mutant
Sequence of Phosphatidylinositol 4,5-bisphosphate 3-kinase catalytic subunit alpha isoform (Homo sapiens), P42336 [H1047R] (P42336 whole entry H1047R, canonical isoform): as the sequence (P42336 whole entry, canonical isoform) above, with H1047R counted along it

Row | SMILES | IC50 [1] | IC50 [2] | IC50 [3] | IC50 [4] | also measured
1 | COc1cc(F)c2[nH]c(-c3c(C)nn(C)c3C)c(/C=C3/Oc4ccc(NC(=O)Nc5ccc(C(=O)N6CCOCC6)cc5)cc4C3=O)c2c1 | 6 nM | 0.5 nM | 2.5 nM | 57 nM | 
2 | CNC(=O)Nc1ccc2c(c1)C(=O)/C(=C\c1c(-c3c(C)nn(C)c3C)[nH]c3c(F)cc(OC)cc13)O2 | 20 nM | 0.4 nM | 2.4 nM | 62 nM | 
3 | COc1ccc2[nH]c(-c3c(C)nn(C)c3C)c(/C=C3/Oc4ccc(NC(=O)Nc5ccc(C(=O)N(C)CCN(C)C)cc5)cc4C3=O)c2c1 | < 3 nM | 0.3 nM | 1.1 nM | 23 nM | 
4 | COc1ccc2[nH]c(-c3c(C)nn(C)c3C)c(/C=C3/Oc4ccc(NC(=O)Nc5ccc(C(=O)N6CCN(C)CC6)cc5)cc4C3=O)c2c1 | 8 nM | 0.2 nM | 3.8 nM | 131 nM | 
5 | COc1ccc2[nH]c(-c3c(C)nn(C)c3C)c(/C=C3/Oc4ccc(NC(=O)Nc5ccc(C(=O)N6CCOCC6)cc5)cc4C3=O)c2c1 | 6 nM | 0.2 nM | 4.2 nM | 94 nM | 
6 | COc1cc(F)c2[nH]c(-c3c(C)nn(C)c3C)c(/C=C3/Oc4ccc(NC(=O)Nc5ccc(C(=O)N(C)CCN(C)C)cc5)cc4C3=O)c2c1 | < 3 nM | 0.2 nM | 0.3 nM | 10 nM | half-life [5]: > 30 min; solubility [6]: 1 µg/mL (≈ 1.47 µM); inhibition [7]: Active; IC50 [8]: 0.7 nM; IC50 [9]: 0.3 nM; Activity [10]: Active; IC50 [11]: 0.6 nM; Papp B→A [12]: 0.3 ×10⁻⁶ cm/s; Papp A→B [13]: 0.3 ×10⁻⁶ cm/s; IC50 [14]: 2.4 nM; half-life [15]: > 30 min; half-life [16]: > 30 min; inhibition [17]: Active; inhibition [18]: Active; inhibition [19]: Active; INH [20]: 0.5 nM
7 | CNC(=O)Nc1ccc2c(c1)C(=O)/C(=C\c1c(-c3c(C)nn(C)c3C)[nH]c3ccc(OC)cc13)O2 | 36 nM | 0.4 nM | 1.3 nM | 130 nM | 
8 | COc1ccc2[nH]cc(/C=C3/Oc4ccc(NC(=O)Nc5ccc(C(=O)N6CCN(C)CC6)cc5)cc4C3=O)c2c1 | > 1000 nM | 0.9 nM | > 4000 nM | > 1000 nM | 
9 | COc1cc(F)c2[nH]c(-c3c(C)nn(C)c3C)c(/C=C3/Oc4ccc(NC(=O)Nc5cccnc5)cc4C3=O)c2c1 | 39 nM | 1 nM | 1.5 nM | > 1000 nM | 
10 | COc1ccc2[nH]c(-c3c(C)nn(C)c3C)c(/C=C3/Oc4ccc(NC(=O)Nc5cccnc5)cc4C3=O)c2c1 | 76 nM | 0.5 nM | 5.2 nM | > 10000 nM | 
